Laboratory results published in US5846986A, “Therapeutic phenoxyalkylazoles and phenoxyalkylazines” (Sanofi, priority 1997, dated 1998).

Tested on: panel of 10 human rhinopicornavirus serotypes HRV-3, -4, -5, -9, -16, -18, -38, -66, -75 and -67 (panel B)
Assay: automated TCID-50 assay, HeLa cells, panel B of 10 human rhinopicornavirus serotypes
Assay type: cell-based
Settings: minimum concentration required to inhibit 50% of the tested serotypes, number of serotypes tested in column N, 3 days, 33° C.
Experimental: The MIC values were determined by an automated tissue culture infectious dose 50% (TCID-50) assay. HeLa cells in monoloyers in 96-well cluster plates were infected with a dilution of picornavirus which had been shown empirically to produce 80% to 100% cytopathic effect (CPE) in 3 days in the absence of drug. The compound to be tested was serially diluted through 10, 2-fold cycles and added to the infected cells. After a 3 day incubation at 33° C. and 2.5% carbon dioxide, the cells were fixed with a 5% solution of glutaraldehyde followed by staining with a 0.25% solution of crystal violet in water. […]
In the above test procedures, representative compounds of formula I were tested against some the serotypes from either a panel of fifteen human rhinopicornavirus (HRV) serotypes, (noted in the table as panel T) namely, HRV-2, -14, -1A, -1B, -6, -21, -22, -15, -25, -30, -50, -67, -89, -86 and -41 or against some of the serotypes from a panel of 10 human rhinopicornavirus serotypes namely HRV-3, -4, -5, -9, -16, -18, -38, -66, -75 and -67, (noted in the table as panel B) and the MIC value, expressed in micrograms per milliliter […], for each rhinopicornavirus serotype was determined for each picornavirus, example le is given as an example of the data. […]

In the case of “3-Methyl-5-[3-[4-(2-methyl-tetrazol-5-yl)-2,6-dimethylphenoxy]-propyl]-thiazole [Example 11]”, the Mic50 is reported as 0.148 µg/mL.
